Each structure is given as a SMILES string.

Factor D, sequence (P00746 26-253): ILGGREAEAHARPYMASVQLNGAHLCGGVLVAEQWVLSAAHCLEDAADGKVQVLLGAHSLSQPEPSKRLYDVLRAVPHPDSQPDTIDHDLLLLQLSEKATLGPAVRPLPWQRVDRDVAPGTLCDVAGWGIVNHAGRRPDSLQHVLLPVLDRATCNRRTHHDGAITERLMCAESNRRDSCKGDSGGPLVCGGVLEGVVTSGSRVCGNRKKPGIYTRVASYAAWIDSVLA

The assay has as its target Factor D (Homo sapiens (Human), UniProt P00746). The assay is described as follows: Factor D esterolytic assay. It counts as biochemical. The following applies: Z-Lys-SBzl substrate, 100 mM HEPES, 500 mM NaCl, pH 7.5, 10% DMSO; tested a minimum of three times; read-out: Measured Ki (IC50) Value for Compounds: IC50. How it is done: The IC50 value of a compound (i.e., the concentration of the compound that inhibits 50% of the enzymatic activity) was calculated according to the procedure reported in U.S. Pat. No. 6,653,340 B1, e.g., column 74 (incorporated by reference).
Specifically, the compounds were dissolved in a stock solution of DMSO at 10.0 or 100 mM. A portion of this stock solution was added to assay buffer in a final volume of 50 μL. Controls included buffer alone and enzyme solutions to which DMSO was added. Substrate was added to the reaction wells immediately or after incubation at room temperature. The reaction rates were measured spectrophotometrically by the generation of product at 405 nm for 600 sec. Background absorbance at 690 nm was measured and subtracted from the absorbance at 405 nm for each well.
The reaction rate for enzyme alone was compared to the rate of enzyme in the presence of inhibitor and the percent inhibition was calculated as shown below: […]
An established esterolytic assay for the measurement of Factor D activity and inhibition of Factor D activity was used (Kam, C. M.; McRae, B. J.; Harper, J. W.; Niemann, M. A.; Volanakis, J. E.; Powers, J. C. Human complement proteins D, C2, and B Active site mapping with peptide thioester substrates. J Biol. Chem. 1987, 262, 3444-3451). For this assay Z-Lys-SBzl, 1.29 mM (Kim, S.; Narayana, S. V. L; Volanakis, J. E. Mutational analysis of the substrate binding site of human complement Factor D. Biochemistry. 1994, 33, 14393-14399.) was used as the substrate for Factor D ([…]). Hydrolysis of this compound by Factor D liberated a free sulfhydryl group which is then reacted with 5,5′-dithiobis(2nitrobenzoic acid) producing an intense yellow color (Habeeb, A. F. S. A. Reaction of protein sulfhydryl groups with Ellman's Reagent. Methods in Enzymol. 1976, 25, 457-464.). The assays were performed in 96 well microtiter plates and rates of hydrolysis were monitored at 405 nm on a Biotek Synergy H1 plate reader. Hydrolysis rates were reported as change in mOD/min. The assay was conducted in 100 mM HEPES, 500 mM NaCl, pH 7.5 containing 10% DMSO in a final volume of 50 μL per well.
An IC50, a compound concentration which inhibits 50% of the enzymatic activity, was calculated. Compounds in the examples were tested a minimum of three times.
Take `CC(C)n1nc(COc2ccccc2CC(=O)O)c2cc(-c3ccc(CN)cc3)ccc21` [Compound 311c, 2-(2-((5-(4-(aminomethyl)phenyl)-1-isopropyl-1H-indazol-3-yl)methoxy)phenyl)acetic acid]: the IC50 was over 10000 nM.
In the case of `NCc1cccc(-c2ccc3[nH]cc(C(=O)Nc4ccccc4CC(=O)O)c3n2)c1` [Compound 14c, 2-(2-(5-(3-(aminomethyl)phenyl)-1H-pyrrolo[3,2-b]pyridine-3-carboxamido)phenyl)acetic acid], the half-maximal inhibitory concentration (IC50) is under 1000 nM.
As for `CC(C)n1nc(COc2ccccc2CCC(=O)O)c2cc(-c3cccc(CN)c3)ccc21` [Compound 308d, 3-(2-((5-(3-(aminomethyl)phenyl)-1-isopropyl-1H-indazol-3-yl)methoxy)phenyl)propanoic acid], the figure is 1000 to 10000 nM; as for `NCc1cccc(-c2ccc3occ(COc4c(CN)cccc4CC(=O)O)c3c2)c1` [Compound 145c, 2-(3-(aminomethyl)-2-((5-(3-(aminomethyl)phenyl)benzofuran-3-yl)methoxy)phenyl)acetic acid], under 1000 nM; as for `NCc1cccc(-c2ccc3occ(Cc4ccccc4CC(=O)O)c3c2)c1` [Compound 73f, 2-(2-((5-(3-(aminomethyl)phenyl)benzofuran-3-yl)methyl)phenyl)acetic acid], 1000 to 10000 nM.
As for `COc1ccc(CC(=O)O)c(OCc2coc3c(OCC4CC4)cc(-c4cccc(CN)c4)cc23)c1` [Compound 160c, 2-(2-((5-(3-(aminomethyl)phenyl)-7-(cyclopropylmethoxy)benzofuran-3-yl)methoxy)-4-methoxyphenyl)acetic acid], the figure is under 1000 nM.
With `Cn1nc(COc2ccccc2CC(=O)O)c2cc(-c3cccc(CN)c3)c3occc3c21` [Compound 3021, 2-(2-((5-(3-(aminomethyl)phenyl)-1-methyl-1H-furo[2,3-g]indazol-3-yl)methoxy)phenyl)acetic acid], the concentration for half-maximal inhibition (IC50) was under 1000 nM.
Turning to `Cc1cc(-c2cccc(CN)c2)cc2c(COc3ccccc3CC(=O)O)coc12` [Compound 17e, 2-(2-((5-(3-(aminomethyl)phenyl)-7-methylbenzofuran-3-yl)methoxy)phenyl)acetic acid], the 50% inhibitory concentration (IC50) is under 1000 nM.
As for `Cc1cccc(CC(=O)O)c1OCc1nn(C(C)C)c2ccc(-c3cccc(CN)c3)cc12` [Compound 306c, 2-(2-((5-(3-(aminomethyl)phenyl)-1-isopropyl-1H-indazol-3-yl)methoxy)-3-methylphenyl)acetic acid], the figure is under 1000 nM; as for `Cc1oc2ccc(-c3cccc(CN)c3)cc2c1COc1cc(F)ccc1CC(=O)O` [Compound 200c, 2-(2-((5-(3-(aminomethyl)phenyl)-2-methylbenzofuran-3-yl)methoxy)-4-fluorophenyl)acetic acid], under 1000 nM.
As for `COc1cc(-c2cccc(CN)c2)cc2c(COc3ccccc3CC(=O)O)coc12` [Compound 18e, 2-(2-((5-(3-(aminomethyl)phenyl)-7-methoxybenzofuran-3-yl)methoxy)phenyl)acetic acid], the figure is under 1000 nM; as for `COc1ccc(CC(=O)O)c(OCc2c(C(F)F)oc3c(NCC4CC4)cc(-c4cccc(CN)c4)cc23)c1` [Compound 236c, 2-(2-((5-(3-(aminomethyl)phenyl)-7-((cyclopropylmethyl)amino)-2-(difluoromethyl)benzofuran-3-yl)methoxy)-4-methoxyphenyl)acetic acid], under 1000 nM; as for `Cc1cccc(C)c1-c1cc(-c2cccc(CN)c2)cc2c(COc3ccccc3CC(=O)O)coc12` [Compound 220c, 2-(2-((5-(3-(aminomethyl)phenyl)-7-(2,6-dimethylphenyl)benzofuran-3-yl)methoxy)phenyl)acetic acid], under 1000 nM.
As for `NCc1cccc(-c2cc(COc3cccc(CC(=O)O)c3)cc3cc(COc4ccccc4CC(=O)O)oc23)c1` [Compound 16e, 2-(3-((7-(3-(aminomethyl)phenyl)-2-((2-(carboxymethyl)phenoxy)methyl)benzofuran-5-yl)methoxy)phenyl)acetic acid], the figure is under 1000 nM; as for `CN(Cc1cc(-c2cccc(CN)c2)cc2c(COc3ccccc3CC(=O)O)coc12)C1CC1` [Compound 261e, 2-(2-((5-(3-(aminomethyl)phenyl)-7-((cyclopropyl(methyl)amino)methyl)benzofuran-3-yl)methoxy)phenyl)acetic acid], under 1000 nM.
For `COc1ccc(CC(=O)O)c(OCc2c(C(C)O)oc3ccc(-c4cccc(CN)c4)cc23)c1` (centres unmarked) [Compound 217c, 2-(2-((5-(3-(aminomethyl)phenyl)-2-(1-hydroxyethyl)benzofuran-3-yl)methoxy)-4-methoxyphenyl)acetic acid], the concentration for half-maximal inhibition (IC50) was under 1000 nM.
As for `CC(C)(C)OC(=O)n1cc(Cc2cccc(CC(=O)O)c2O)c2cc(-c3cccc(CN)c3)ccc21` [Compound 75e, 2-(3-((5-(3-(aminomethyl)phenyl)-1-(tert-butoxycarbonyl)-1H-indol-3-yl)methyl)-2-hydroxyphenyl)acetic acid], the figure is over 10000 nM.
`COc1c(CN)cccc1-c1cc2c(COc3ccccc3CC(=O)O)cccc2o1` [Compound 300d, 2-(2-((2-(3-(aminomethyl)-2-methoxyphenyl)benzofuran-4-yl)methoxy)phenyl)acetic acid]: the IC50 lay in the range of 1000 to 10000 nM.
With `NCc1cccc(-c2ccc3oc(CO)c(COc4ccccc4CC(=O)O)c3c2)c1` [Compound 112c, 2-(2-((5-(3-(aminomethyl)phenyl)-2-(hydroxymethyl)benzofuran-3-yl)methoxy)phenyl)acetic acid] the figure was under 1000 nM.
Consider `CCCCC(C(=O)O)c1ccccc1OCc1nn(C(C)C)c2ccc(-c3cccc(CN)c3)cc12` (centres unmarked) [Compound 312f, 2-(2-((5-(3-(aminomethyl)phenyl)-1-isopropyl-1H-indazol-3-yl)methoxy)phenyl)hexanoic acid], for which the IC50 was in the range of 1000 to 10000 nM.
As for `COc1ccc(CC(=O)O)c(OCc2coc3c(C(F)(F)F)cc(-c4cccc(CN)c4)cc23)c1` [Compound 270c, 2-(2-((5-(3-(aminomethyl)phenyl)-7-(trifluoromethyl)benzofuran-3-yl)methoxy)-4-methoxyphenyl)acetic acid], the IC50 was under 1000 nM.
As for `NCc1cccc(-c2cc3c(COc4ccccc4CC(=O)O)csc3c3occc23)c1` [Compound 232h, 2-(2-((4-(3-(aminomethyl)phenyl)thieno[3,2-g]benzofuran-6-yl)methoxy)phenyl)acetic acid], the figure is under 1000 nM; as for `Cc1cc2c(o1)c(-c1cccc(CN)c1)cc1c(COc3ccccc3CC(=O)O)coc12` [Compound 283g, 2-(2-((5-(3-(aminomethyl)phenyl)-7-methylbenzo[1,2-b:3,4-b′]difuran-3-yl)methoxy)phenyl)acetic acid], under 1000 nM.
With `CC(C)n1nc(COc2ccccc2CC(=O)O)c2cc(-c3ccc(O)c(CN)c3)ccc21` [Compound 317d, 2-(2-((5-(3-(aminomethyl)-4-hydroxyphenyl)-1-isopropyl-1H-indazol-3-yl)methoxy)phenyl)acetic acid] the figure was 1000 to 10000 nM; with `NCc1cccc(-c2cc(COc3ccccc3)c3occ(COc4ccccc4CC(=O)O)c3c2)c1` [Compound 92e, 2-(2-((5-(3-(aminomethyl)phenyl)-7-(phenoxymethyl)benzofuran-3-yl)methoxy)phenyl)acetic acid], under 1000 nM.
As for `NCc1cccc(-c2cccc3c(COc4ccccc4CC(=O)O)coc23)c1` [Compound 36e, 2-(2-((7-(3-(aminomethyl)phenyl)benzofuran-3-yl)methoxy)phenyl)acetic acid], the figure is over 10000 nM; as for `NCc1cccc(-c2cc3c(COc4ccccc4CC(=O)O)coc3c3ccoc23)c1F` [Compound 287b, 2-(2-((5-(3-(aminomethyl)-2-fluorophenyl)benzo[1,2-b:3,4-b′]difuran-3-yl)methoxy)phenyl)acetic acid], under 1000 nM.
Consider `NCc1cccc(-c2cccc3occ(COc4ccccc4CC(=O)O)c23)c1` [Compound 97h, 2-(2-((4-(3-(aminomethyl)phenyl)benzofuran-3-yl)methoxy)phenyl)acetic acid], for which the IC50 was over 10000 nM.
As for `Cc1cccc(OCc2coc3ccc(-c4cccc(CN)c4)cc23)c1CC(=O)O` [Compound 108d, 2-(2-((5-(3-(aminomethyl)phenyl)benzofuran-3-yl)methoxy)-6-methylphenyl)acetic acid], the figure is under 1000 nM.

The record behind these values is patent US20250186391A1, “ORAL COMPLEMENT FACTOR D INHIBITORS” (BioCryst Pharmaceuticals, Inc., priority 2019, published 2025).
